Test results taken from patent EP1051405B1, “NOVEL DIHYDROXYHEXANOIC ACID DERIVATIVES” (Pfizer Products Inc., priority 1998, dated 1999).

Assay: physchem
Conditions: phosphate buffer, pH 7, aqueous buffer
Description: Solubility of the compounds is determined at four fixed concentrations and is expressed as µg/mL. Solubility or insolubility is measured in phosphate buffer using a turbidometric plate reader by automated micro addition of a compound predissolved in DMSO. Solubilities at 50, 100, 200 and 250 or 100, 200, 400 and 500 micrograms/mL can be determined by predissolving 1 mg of compound in sufficient DMSO to reach an initial concentration of 20 or 40 µg/ µL.
A spectramax 250 UV transparent 96 well microplate is filled with 200 µL of Stock pH 7 phosphate buffer solution. A series of 25 absorption readings in a 5 by 5 matrix at a wavelength of 492nm are taken for each well in the microplate containing pH buffer alone. […]
After compound addition, a second scan consisting of a series of 25 absorption readings in a 5 by 5 matrix are taken for each well in the microplate at the same wavelength as the first blank scan. The raw compound OD values for each reading in the 5 by 5 matrix are subtracted from the corresponding "blank" values in the 5 by 5 matrix to provide the raw solubility OD data.
Data obtained from the Tecan SLT Spectra Image Reader is then analyzed using a Visual Basic computer program (or can be calculated manually according to methods well known to those of ordinary skill in the art), so as to provide solubility data for each compound.

Row | solubility | SMILES
1 | > 100 µg/mL | CC(C)(O)CC[C@H](C[C@H](O)[C@H](Cc1cccc(Cl)c1)NC(=O)c1cnc2ccccc2n1)C(N)=O [Example 2, Quinoxaline-2-carboxylic acid [4(R)-carbamoyl-1(S)-(3-chloro-benzyl)-2(S),7-dihydroxy-7-methyl-octyl]-amide]
2 | < 5 µg/mL | CC(C)(F)CC[C@H](C[C@H](O)[C@H](Cc1ccccc1)NC(=O)c1cnc(Cl)c(Cl)c1)C(N)=O [Example 247]
